Key:
Assay in all cases: relative viability (nuclei count vs DMSO), 5 days (fraction); higher = more cells survive
[1] = compound: COc1cc2nc(N3CCCN(C)CC3)nc(NC3CCN(Cc4ccccc4)CC3)c2cc1OC + Cc1nc(Nc2ncc(C(=O)Nc3c(C)cccc3Cl)s2)cc(N2CCN(CCO)CC2)n1 [Dasatinib] (partner 0.075 µM)
Summary of the method: (§1)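 Lung cancer cell lines were seeded in 1536-well plates and dosed by pin tool the next day, with either a single drug or a fixed anchor-drug dose combined with five library-drug doses (not always all listed) spaced in √10 steps. Five days later, one step fixed the cells and stained their nuclei (final 0.05% Triton X-100, 1% formaldehyde, 1 ug/ml Hoechst), and nuclei were counted on 4× images. Relative viability is the nuclei count in treated wells divided by the count in vehicle wells, and each value is the median of duplicate plates.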

[2] = compound: Cc1cc([C@@H](C)Nc2ccccc2C(=O)O)c2nc(N3CCOCC3)cc(=O)n2c1 [AZD6482] + Cc1cc(Nc2cc(N3CCN(C)CC3)nc(Sc3ccc(NC(=O)C4CC4)cc3)n2)n[nH]1 [Tozasertib] (partner 0.1 µM)
Summary of the method: as §1

[3] = compound: COc1cc2nc(N3CCCN(C)CC3)nc(NC3CCN(Cc4ccccc4)CC3)c2cc1OC + CC1(C)CCC(c2ccc(Cl)cc2)=C(CN2CCN(c3ccc(C(=O)NS(=O)(=O)c4ccc(N[C@H](CCN5CCOCC5)CSc5ccccc5)c(S(=O)(=O)C(F)(F)F)c4)cc3)CC2)C1 [Navitoclax] (partner 0.5 µM)
Summary of the method: as §1

[4] = compound: Cc1cc([C@@H](C)Nc2ccccc2C(=O)O)c2nc(N3CCOCC3)cc(=O)n2c1 [AZD6482] + Nc1nc2[nH]cc(CCc3ccc(C(=O)N[C@@H](CCC(=O)O)C(=O)O)cc3)c2c(=O)[nH]1 [Pemetrexed] (partner 0.2 µM)
Summary of the method: as §1

Cell Line	relative viability ([1]; first compound 0.2 µM)	relative viability ([1]; first compound 0.6325 µM)	relative viability ([1]; first compound 2 µM)	relative viability ([1]; first compound 6.325 µM)	relative viability ([2]; first compound 0.08 µM)	relative viability ([2]; first compound 0.253 µM)	relative viability ([2]; first compound 0.8 µM)	relative viability ([2]; first compound 2.53 µM)	relative viability ([2]; first compound 8 µM)	relative viability ([3]; first compound 0.2 µM)	relative viability ([3]; first compound 0.6325 µM)	relative viability ([3]; first compound 2 µM)	relative viability ([3]; first compound 6.325 µM)	relative viability ([4]; first compound 0.08 µM)	relative viability ([4]; first compound 0.253 µM)	relative viability ([4]; first compound 0.8 µM)	relative viability ([4]; first compound 2.53 µM)	relative viability ([4]; first compound 8 µM)
NCI-H322M	0.258	0.281	0.274	0.26	0.442	0.461	0.453	0.319	0.384	1.12	1.12	1.19	1.21	0.572	0.61	0.62	0.49	0.498
NCI-H441	0.602	0.616	0.532	0.599	0.631	0.545	0.632		0.527	0.591		0.831	0.277	0.261	0.267	0.276		0.282
NCI-H460	0.532	0.534	0.415	0.43	0.468	0.288	0.135	0.537	0.389	1.16	1.13	1.17	0.754	0.0644	0.0667	0.0599	0.0555	0.0589
NCI-H520	0.217	0.228	0.252	0.187	0.39	0.344	0.344	0.221	0.221	1.21	0.89	0.989	0.867	0.501	0.409	0.394	0.144	0.222
NCI-H596	0.659	0.652	0.638	0.654	0.854	1.16	0.725	0.772	0.666	1.03	0.851	0.949	0.821	0.451	0.485	0.486	0.462	0.492
NCI-H647	0.201	0.233	0.192	0.149	0.23	0.26	0.192	0.145	0.23	1.07	1.18	1.32	0.964	0.154	0.161	0.191	0.16	0.158
NCI-H838	0.316	0.319	0.33	0.237	0.264	0.266	0.243	0.192	0.222	1.17	1.13	1.27	1.08	0.287	0.264	0.25	0.226	0.232
NCI-H1355	0.761	0.777	0.787	0.783	0.462	0.419	0.43	0.435	0.441	0.918	0.947	1.01	0.921	0.939	1.07	1.07	0.856	0.875
NCI-H1395	0.459	0.425	0.384	0.357	0.625	0.646	0.584	0.54	0.44	1.18	1.32	1.17	1.05	0.742	0.552	0.591	0.45	0.521
NCI-H1437	0.48	0.454	0.492	0.384	0.393	0.408	0.301	0.325	0.254	1.12	1.04	1.17	1.04	0.314	0.307	0.306	0.274	0.225
NCI-H1650	0.28	0.367	0.327	0.233	0.36	0.378	0.303	0.336	0.393	1.25	1.07	1.48	1.07	0.332	0.295	0.372	0.287	0.361
NCI-H1651	0.383	0.523	0.47	0.413	0.68	0.647	0.598	0.565	0.592	1.14	1.02	1.42	1.03	0.578	0.545	0.556	0.401	0.482
NCI-H1666	0.819	0.847	0.788	0.718	0.544	0.701	0.592	0.554	0.648	0.934	1.16	1.03	0.642	0.902	0.964	0.905	0.735	0.82
NCI-H1734	0.524	0.37	0.46	0.416	0.287	0.263	0.269	0.217	0.24	0.883	0.757	0.83	0.599	0.408	0.442	0.408	0.396	0.397
NCI-H1755	0.436	0.395	0.416	0.423	0.608	0.537	0.688	0.478	0.519	0.995	0.972	0.951	0.968	0.416	0.435	0.436	0.383	0.36
NCI-H1793	0.378	0.412	0.375	0.375	0.256	0.189	0.219	0.226	0.15	0.49	0.489	0.492	0.457	0.509	0.545	0.818	0.416	0.383
NCI-H1915	0.35	0.355	0.338	0.349	0.453	0.346	0.417	0.426	0.371	0.805	0.772	0.843	0.797	0.491	0.434	0.513	0.349	0.452
NCI-H1944	0.199	0.245	0.204	0.232	0.238	0.242	0.217	0.206	0.189	1.1	1.02		0.982	0.535	0.575	0.604	0.427	0.499

Cell Line	relative viability ([1]; first compound 0.2 µM)	relative viability ([1]; first compound 0.6325 µM)	relative viability ([1]; first compound 2 µM)	relative viability ([1]; first compound 6.325 µM)	relative viability ([2]; first compound 0.08 µM)	relative viability ([2]; first compound 0.253 µM)	relative viability ([2]; first compound 0.8 µM)	relative viability ([2]; first compound 2.53 µM)	relative viability ([2]; first compound 8 µM)	relative viability ([3]; first compound 0.2 µM)	relative viability ([3]; first compound 0.6325 µM)	relative viability ([3]; first compound 2 µM)	relative viability ([3]; first compound 6.325 µM)	relative viability ([4]; first compound 0.08 µM)	relative viability ([4]; first compound 0.253 µM)	relative viability ([4]; first compound 0.8 µM)	relative viability ([4]; first compound 2.53 µM)	relative viability ([4]; first compound 8 µM)
NCI-H1975	0.342	0.438	0.464	0.287	0.624	0.717	0.701	0.629	0.463	1.2	1.18	1.21	1.05	0.257	0.28	0.31	0.303	0.308
NCI-H1993	0.568	0.657	0.657	0.574	0.446	0.609	0.55	0.527	0.562	0.919	0.97	1.04	0.991	0.464	0.58	0.48	0.4	1.03
NCI-H2009	0.308	0.324	0.493	0.296	0.677	0.733	0.637	0.503	0.521	1.22	1.17	1.2	1.15	0.972	1.12	1.11	0.724	1.01
NCI-H2023	0.57	0.558	0.56	0.237	0.367	0.336	0.286	0.289	0.279	1.02	1.01	1.03	0.616	0.254	0.226	0.204	0.175	0.176
NCI-H2085	0.217	0.306	0.262	0.206	0.656	0.539	0.407	0.393	0.351	1.03	1.12	1.27	0.981	0.567	0.384	0.407	0.317	0.299
NCI-H2087	0.7	0.75	0.941	0.617	0.282	0.268	0.221		0.205	1.06	0.933	1.28	0.854	0.682	0.63	0.596	0.593	0.674
NCI-H2126	0.583	0.678	0.597	0.502	0.786	0.804	0.669	0.423	0.561	0.847	0.777	0.804	0.81	0.683	0.677	0.692	0.411	0.434
NCI-H2170	0.658	0.594	0.638	0.583	0.678	0.681	0.615	0.643	0.47	0.707	0.577	0.494	0.582	0.257	0.242	0.265	0.252	0.251
NCI-H2228	0.514	0.488	0.496	0.243		0.257	0.235	0.287	0.155	0.703	0.742	0.797	0.415	0.325	0.3	0.325	0.303	0.309
NCI-H2347	0.36	0.339	0.304	0.274	0.321	0.388	0.364	0.357	0.371	0.764	0.771	0.873	0.693	0.382	0.455	0.362	0.38	0.364
NCI-H2405	0.213	0.214	0.2	0.202	0.465		0.668	0.53	0.403	0.829	0.826	0.84	0.728	0.81	0.977	0.987	0.569	0.436
NCI-H3122	0.969	0.763	0.894	0.765	0.355	0.348	0.344		0.351	1.01	1.02	1.05	0.992	0.191	0.198	0.2	0.189	0.189
PC-3 [JPC-3]	0.954	0.908	1.08	1	0.785	0.793	0.892	0.78	0.823	0.89	0.815	0.775	0.741	1.07	1.05	1.04	0.634	0.533
PC-14	0.236	0.277	0.197	0.0162	0.556	0.61	0.619	0.613	0.524	1	0.93	1.14	0.882	0.133	0.125	0.115	0.15	0.135
RERF-LC-KJ	0.805	0.812	1.01	0.567	0.447	0.513	0.49	0.465	0.388	0.94	0.884	0.926	0.72	0.461	0.459	0.465	0.439	0.449
SK-LU-1	0.21	0.159	0.206	0.119		0.334	0.295	0.242	0.261	1.06	1	1.2	0.461		0.906	1.04	0.738	0.714
SK-MES-1	0.41	0.374	0.386	0.171	0.877	0.939	0.86	0.571	0.549	1.14	1.24	1.36	0.999	0.84	0.974	0.876	0.394	0.532
